This is an account of results in patent publication US5456247A, “Method for delivering drugs soluble in a vaporization vehicle” (priority 1993, dated 1995).

Series [1] can be described thus: Volatilization of drugs with a vaporization vehicle. The class given is physicochemical. As to conditions: menthol as vaporization vehicle. The text has this: The amount of vaporization vehicle depends on which drug is delivered. […] Other potential vaporization vehicles include carvone, menthone and camphor.
The next series concerns bordetella avium. The note with it: turkeys; route not stated; cited from earlier work.
The nature of series [2]: in vivo. As to conditions: inhaled or intranasal.
Description: (§1) The levels that were taken orally were administered for a period of time on the order of days, while inhalation treatments were for a period of time on the order of minutes in length (five minutes).
Series [3] is described as follows: in vivo. As to conditions: rat, inhaled or intranasal. Here is the method: Tests were conducted to study the entry of sulfa drugs into the blood and lungs of test subjects. […] Rats were placed in the treatment chamber 9. […] An air pump was used to circulate air through the volatile chamber 10 to the treatment chamber. The rats' condition, temperature of the flask and vapor flow into the treatment chamber 9 were monitored. After three minutes of inhalation therapy the air flow was shut off and the rats were removed from treatment chamber 9. Blood and lung tissue were removed for testing.

The conditions of series [4]: rat, in vivo, inhaled or intranasal, 0.05 h. Here is the method: Tests were conducted to study the entry of sulfa drugs into the blood and lungs of test subjects. […] Samples of sulfamethazine and menthol (0.285 grams equal portions of each) were weighed and heated at 180° C. in a distillation flask in the volatile chamber. Rats were placed in the treatment chamber 9. […] An air pump was used to circulate air through the volatile chamber 10 to the treatment chamber. The rats' condition, temperature of the flask and vapor flow into the treatment chamber 9 were monitored. After three minutes of inhalation therapy the air flow was shut off and the rats were removed from treatment chamber 9. Blood and lung tissue were removed for testing.

For series [5] the following is noted: in vivo.
Description: as §1

Read-outs that look alike come from different tables or passages of the source.

On to gentamicin, for which the “need for menthol for volatilization” value in series [1] was “can be volatilized with little or no menthol”. In addition, the “success at treating bordetella avium disease” value with bordetella avium is given as “successful at treating the disease”.
`Cc1cc(C)nc(NS(=O)(=O)c2ccc(N)cc2)n1` [sulfamethazine] came in with a concentration at 25 min in the series “in vivo [2]” of 100 ng/g. Also, the “Lungs: sulfamethazine level” value in the series “in vivo [3]” (0.05 h) is ~ 0.1 ppm; in series [4] it was 50 ppb. In the series “in vivo [3]” (Lungs: sulfamethazine level), this compound displayed a concentration at 0.05 h of roughly 100 ng/g. Besides, the “sulfamethazine level in lung tissue, inhalation, immediate” value in series [5] (0 min) is reported as 0.2 ppm. Further, the “sulfamethazine level in lung tissue, oral” value in series [5] (po) was 0.1 ppm.
In the case of `Cc1cc(NS(=O)(=O)c2ccc(N)cc2)no1` [sulfamethoxazole], the “success at treating bordetella avium disease” value in the series with bordetella avium is “successful at treating the disease”.
